Experimental data published in patent US20160138077A1, “MONITORING AND ASSESSING DEACETYLASE ENZYME ACTIVITY” (THE GENERAL HOSPITAL CORPORATION, priority 2013, published 2016).

How the values were obtained:
[1] = target: HDAC2 (Homo sapiens, UniProt Q92769); test: LCMS characterization of enzymatic deacetylation by HDAC2; type: biochemical; conditions: 5 μM probe, 12 hours at 37° C.
Description: The enzymatic cleavage of HP-1 and HP-2 was analyzed by performing LCMS assays with HeLa nuclear extract (AnaSpec), HeLa whole cell lysate (Santa Cruz Inc.), and the following purified HDAC isoforms: 1, 2, 3, 6 and 8 (HDAC1, 3 and 8 from Cayman Chemicals and HDAC2 and 6 provided by Dr. Stephen Haggarty). Solutions containing (i) vehicle with DMSO in HDAC buffer, (ii) 5 μM probe in HDAC buffer, (iii) 5 μM probe and HDAC enzyme/HeLa nuclear extract/HeLa whole cell lysate in HDAC buffer, or (iv) 5 μM probe and HDAC enzyme/HeLa nuclear extract/HeLa whole cell lysate pre-incubated with 10 μM SAHA (Provided by Dr. Stephen Haggarty) in HDAC buffer were incubated for 12 hours at 37° C. Following incubation, a 20 μL aliquot of supernatant from each sample was analyzed by LCMS. […] For HP-1, the (M+H)^+ ion for the corresponding aldehyde (8, DHP-1) was detected, which formed following reaction of the initial imine deacetylation product with water. […] The peak area for each detected compound was measured to determine the % deacetylation of each probe. All assay samples were analyzed in triplicate. […]
LCMS characterization of HDAC enzymatic action on HP-1 and HP-2. […] Following incubation, an aliquot of supernatant from each sample was analyzed by LCMS. […] The peak area for each detected compound was measured to determine the % deacetylation of each probe (full experimental details in Example 1).

[2] = test system: HeLa cells; test: Determination of HDAC activity in HeLa cells by LC-MS; type: cell-based; conditions: live HeLa cells, 5 μM, over 24 h
Description: HeLa cell culture and treatment with HP-1 and HP-2. HeLa cells (ATCC) were grown as a monolayer in Eagles Minimum Essential Medium (EMEM, GIBCO, BRL, Gaithersburg, Md.) with 10% Fetal Bovine Serum (FBS, GIBCO, BRL, Gaithersburg, Md.) and 1% penicillin/streptomycin ([…]). All cell culture dishes were maintained in a humidified atmosphere with 5% CO2 at 37° C.
Determination of HDAC activity in HeLa cells by LC-MS. HDAC activity in HeLa cells was analyzed by performing an LCMS assay. Solutions of HP-1 and HP-2 (200 mM each) were prepared in DMSO and diluted in HDAC buffer to a final concentration of 100 μM. […] Cells were scraped off of the flask, lysed in milipore water (90 μL) using a mechanical homogenizer, centrifuged (at 14,000×g for 2 min) and 20 μL aliquot of supernatant from each sample was analyzed by LCMS. […] The peak area for each detected compound was measured to determine the % conversion. For HP-1, the corresponding (M+H)^+ ion was detected. […] The peak area for each detected compound was measured to determine the % conversion of each probe. […]
Determination of HDAC activity in HeLa cells by LC-MS. […] Cells were scraped off of the flask, lysed in Millipore water using a mechanical homogenizer, and supernatant of the lysed samples were analyzed by LC-MS. […] The peak area for each detected compound was measured to determine the % conversion versus time (full experimental details in Example 1).

Chain of HDAC2 (Q92769 whole entry, species assumed, canonical isoform): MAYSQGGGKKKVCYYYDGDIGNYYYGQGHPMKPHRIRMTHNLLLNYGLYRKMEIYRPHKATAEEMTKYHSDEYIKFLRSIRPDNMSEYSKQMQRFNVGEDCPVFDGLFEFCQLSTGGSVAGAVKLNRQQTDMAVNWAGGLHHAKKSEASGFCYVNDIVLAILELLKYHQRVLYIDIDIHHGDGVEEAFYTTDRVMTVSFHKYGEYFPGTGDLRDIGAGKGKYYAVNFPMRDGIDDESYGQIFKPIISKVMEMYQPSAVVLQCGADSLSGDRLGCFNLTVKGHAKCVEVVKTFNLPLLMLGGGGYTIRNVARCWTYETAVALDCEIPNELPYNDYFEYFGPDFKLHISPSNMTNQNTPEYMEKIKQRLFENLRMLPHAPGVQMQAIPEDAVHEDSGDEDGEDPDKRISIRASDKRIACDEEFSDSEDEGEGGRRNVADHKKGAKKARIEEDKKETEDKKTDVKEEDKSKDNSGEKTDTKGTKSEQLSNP

SMILES: CC(=O)NC=CCCCCNC(=O)CCCCCNc1ccc([N+](=O)[O-])c2nonc12 [HP-1]
- % HP-1 to DHP-1 ([1]; HDAC2, +SAHA (10 μM)): 0%
- % HP-1 to DHP-1 ([1]; HDAC2, −SAHA): 0%
- HP-1 cleaved ([2]; absence of SAHA, LCMS of supernatants and lysates): 80%
- Cleavage of HP-1 ([2]; addition of SAHA (10 μM)): 20%
